From ChEMBL document CHEMBL2434896, “Carbonic anhydrase inhibitors. Synthesis of heterocyclic 4-substituted pyridine-3-sulfonamide derivatives and their inhibition of the human cytosolic isozymes I and II and transmembrane tumor-associated isozymes IX and XII” (Eur J Med Chem, 2013)
The source made the active and inactive calls. No cut-off for these calls is given here.

Assays:
LOX IMVI = test: Growth inhibition of human LOXIMVI cells at 10 uM after 48 hrs by sulforhodamine B assay; type: functional; conditions: read-out: GI
U-251 = test: Growth inhibition of human U251 cells at 10 uM after 48 hrs by sulforhodamine B assay; type: functional
SF-539 = test: Growth inhibition of human SF539 cells at 10 uM after 48 hrs by sulforhodamine B assay; type: functional
SF-295 = test: Growth inhibition of human SF295 cells at 10 uM after 48 hrs by sulforhodamine B assay; type: functional
SF-268 = test: Growth inhibition of human SF268 cells at 10 uM after 48 hrs by sulforhodamine B assay; type: functional
KM12 = test: Growth inhibition of human KM12 cells at 10 uM after 48 hrs by sulforhodamine B assay; type: functional
HCT-15 = test: Growth inhibition of human HCT15 cells at 10 uM after 48 hrs by sulforhodamine B assay; type: functional
HCT-116 = test: Growth inhibition of human HCT116 cells at 10 uM after 48 hrs by sulforhodamine B assay; type: functional
HCC 2998 = test: Growth inhibition of human HCC2998 cells at 10 uM after 48 hrs by sulforhodamine B assay; type: functional
COLO 205 = test: Growth inhibition of human COLO205 cells at 10 uM after 48 hrs by sulforhodamine B assay; type: functional
NCI-H522 = test: Growth inhibition of human NCI-H522 cells at 10 uM after 48 hrs by sulforhodamine B assay; type: functional
NCI-H460 = test: Growth inhibition of human NCI-H460 cells at 10 uM after 48 hrs by sulforhodamine B assay; type: functional
NCI-H322M = test: Growth inhibition of human NCI-H322M cells at 10 uM after 48 hrs by sulforhodamine B assay; type: functional
HOP-62 = test: Growth inhibition of human HOP62 cells at 10 uM after 48 hrs by sulforhodamine B assay; type: functional
A549 = test: Growth inhibition of human A549/ATCC cells at 10 uM after 48 hrs by sulforhodamine B assay; type: functional; conditions: A549, 48 h, read-out: GI
SR = test: Growth inhibition of human SR cells at 10 uM after 48 hrs by sulforhodamine B assay; type: functional; conditions: read-out: GI
RPMI-8226 = test: Growth inhibition of human RPMI8226 cells at 10 uM after 48 hrs by sulforhodamine B assay; type: functional
MOLT-4 = test: Growth inhibition of human MOLT4 cells at 10 uM after 48 hrs by sulforhodamine B assay; type: functional
K562 = test: Growth inhibition of human K562 cells at 10 uM after 48 hrs by sulforhodamine B assay; type: functional
HL-60(TB) = test: Growth inhibition of human HL-60(TB) cells at 10 uM after 48 hrs by sulforhodamine B assay; type: functional
CCRF-CEM = test: Growth inhibition of human CCRF-CEM cells at 10 uM after 48 hrs by sulforhodamine B assay; type: functional
Carbonic anhydrase 9 = Carbonic anhydrase 9 (Homo sapiens, UniProt Q16790); test: Inhibition of human carbonic anhydrase 9 after 15 mins by stopped flow CO2 hydration assay
MDA-MB-468 = test: Growth inhibition of human MDA-MB-468 cells at 10 uM after 48 hrs by sulforhodamine B assay; type: functional
T47D = test: Growth inhibition of human T47D cells at 10 uM after 48 hrs by sulforhodamine B assay; type: functional; conditions: read-out: GI
BT-549 = test: Growth inhibition of human BT549 cells at 10 uM after 48 hrs by sulforhodamine B assay; type: functional; conditions: BT-549, 48 h, read-out: GI
MDA-MB-231 = test: Growth inhibition of human MDA-MB-231 cells at 10 uM after 48 hrs by sulforhodamine B assay; type: functional
DU-145 = test: Growth inhibition of human DU145 cells at 10 uM after 48 hrs by sulforhodamine B assay; type: functional
PC-3 = test: Growth inhibition of human PC3 cells at 10 uM after 48 hrs by sulforhodamine B assay; type: functional; conditions: PC-3, 48 h, read-out: GI
UO-31 = test: Growth inhibition of human UO31 cells at 10 uM after 48 hrs by sulforhodamine B assay; type: functional; conditions: UO-31, 48 h, read-out: GI
TK-10 = test: Growth inhibition of human TK10 cells at 10 uM after 48 hrs by sulforhodamine B assay; type: functional
RXF 393 = test: Growth inhibition of human RXF393 cells at 10 uM after 48 hrs by sulforhodamine B assay; type: functional
CAKI-1 = test: Growth inhibition of human CAKI-1 cells at 10 uM after 48 hrs by sulforhodamine B assay; type: functional
ACHN = test: Growth inhibition of human ACHN cells at 10 uM after 48 hrs by sulforhodamine B assay; type: functional
SK-OV-3 = test: Growth inhibition of human SKOV3 cells at 10 uM after 48 hrs by sulforhodamine B assay; type: functional
OVCAR-5 = test: Growth inhibition of human OVCAR5 cells at 10 uM after 48 hrs by sulforhodamine B assay; type: functional
OVCAR-4 = test: Growth inhibition of human OVCAR4 cells at 10 uM after 48 hrs by sulforhodamine B assay; type: functional
OVCAR-3 = test: Growth inhibition of human OVCAR3 cells at 10 uM after 48 hrs by sulforhodamine B assay; type: functional
IGROV-1 = test: Growth inhibition of human IGROV1 cells at 10 uM after 48 hrs by sulforhodamine B assay; type: functional
UACC-62 = test: Growth inhibition of human UACC62 cells at 10 uM after 48 hrs by sulforhodamine B assay; type: functional
SK-MEL-5 = test: Growth inhibition of human SK-MEL-5 cells at 10 uM after 48 hrs by sulforhodamine B assay; type: functional
SK-MEL-28 = test: Growth inhibition of human SK-MEL-28 cells at 10 uM after 48 hrs by sulforhodamine B assay; type: functional, cell-based
SK-MEL-2 = test: Growth inhibition of human SK-MEL-2 cells at 10 uM after 48 hrs by sulforhodamine B assay; type: functional
MDA-MB-435 = test: Growth inhibition of human MDA-MB-435 cells at 10 uM after 48 hrs by sulforhodamine B assay; type: functional
M14 = test: Growth inhibition of human M14 cells at 10 uM after 48 hrs by sulforhodamine B assay; type: functional
Hs-578T = test: Growth inhibition of human Hs 578T cells at 10 uM after 48 hrs by sulforhodamine B assay; type: functional

## NS(=O)(=O)c1cnccc1N1CCN(c2ccccn2)CC1
LOX IMVI
  inhibition of growth at 10 µM: 9%
U-251; U-251, 48 h, read-out: GI
  inhibition of growth at 10 µM: 6%
SF-539
  growth inhibition (GI): inactive
SF-295
  growth inhibition (GI): inactive
SF-268
  growth inhibition (GI): inactive
KM12
  growth inhibition (GI): inactive
HCT-15
  growth inhibition (GI): inactive
HCT-116; HCT-116, 48 h, read-out: GI
  inhibition of growth at 10 µM: 1%
HCC 2998
  growth inhibition (GI): inactive
COLO 205
  growth inhibition (GI): inactive
NCI-H522
  growth inhibition (GI): inactive
NCI-H460
  growth inhibition (GI): inactive
NCI-H322M
  growth inhibition (GI): inactive
HOP-62
  growth inhibition (GI): inactive
A549
  inhibition of growth at 10 µM: 2%
SR
  inhibition of growth at 10 µM: 12%
RPMI-8226; RPMI-8226, 48 h, read-out: GI
  inhibition of growth at 10 µM: 5%
MOLT-4
  growth inhibition (GI): inactive
K562; K562, 48 h, read-out: GI
  inhibition of growth at 10 µM: 4%
HL-60(TB)
  growth inhibition (GI): inactive
CCRF-CEM; read-out: GI
  inhibition of growth at 10 µM: 5%
Carbonic anhydrase 9
  Ki: 0.113 µM
MDA-MB-468; MDA-MB-468, 48 h, read-out: GI
  inhibition of growth at 10 µM: 1%
T47D
  inhibition of growth at 10 µM: 8%
BT-549
  inhibition of growth at 10 µM: 6%
MDA-MB-231
  growth inhibition (GI): inactive
DU-145; DU-145, 48 h, read-out: GI
  inhibition of growth at 10 µM: 8%
PC-3
  inhibition of growth at 10 µM: 1%
UO-31
  inhibition of growth at 10 µM: 11%
TK-10
  growth inhibition (GI): inactive
RXF 393
  growth inhibition (GI): inactive
CAKI-1; CAKI-1, 48 h, read-out: GI
  inhibition of growth at 10 µM: 10%
ACHN
  growth inhibition (GI): inactive
SK-OV-3
  growth inhibition (GI): inactive
OVCAR-5
  growth inhibition (GI): inactive
OVCAR-4
  growth inhibition (GI): inactive
OVCAR-3
  growth inhibition (GI): inactive
IGROV-1
  growth inhibition (GI): inactive
UACC-62
  growth inhibition (GI): inactive
SK-MEL-5
  growth inhibition (GI): inactive
SK-MEL-28
  growth inhibition (GI): inactive
SK-MEL-2; SK-MEL-2, 48 h, read-out: GI
  inhibition of growth at 10 µM: 1%
MDA-MB-435; MDA-MB-435, 48 h, read-out: GI
  inhibition of growth at 10 µM: 2%
M14
  growth inhibition (GI): inactive

## NS(=O)(=O)c1cnccc1N1CCN(Cc2ccc3c(c2)OCO3)CC1
LOX IMVI
  inhibition of growth at 10 µM: 8%
U-251
  growth inhibition (GI): inactive
SF-539; SF-539, 48 h, read-out: GI
  inhibition of growth at 10 µM: 2%
SF-295
  growth inhibition (GI): inactive
SF-268
  growth inhibition (GI): inactive
KM12; KM12, 48 h, read-out: GI
  inhibition of growth at 10 µM: 1%
HCT-15; HCT-15, 48 h, read-out: GI
  inhibition of growth at 10 µM: 1%
HCT-116
  growth inhibition (GI): inactive
HCC 2998
  growth inhibition (GI): inactive
COLO 205
  growth inhibition (GI): inactive
NCI-H522; NCI-H522, 48 h, read-out: GI
  inhibition of growth at 10 µM: 2%
NCI-H460
  growth inhibition (GI): inactive
NCI-H322M
  growth inhibition (GI): inactive
HOP-62; HOP-62, 48 h, read-out: GI
  inhibition of growth at 10 µM: 5%
A549
  inhibition of growth at 10 µM: 2%
SR
  inhibition of growth at 10 µM: 9%
RPMI-8226
  growth inhibition (GI): inactive
MOLT-4; MOLT-4, 48 h, read-out: GI
  inhibition of growth at 10 µM: 5%
K562
  growth inhibition (GI): inactive
HL-60(TB); HL-60, 48 h, read-out: GI
  inhibition of growth at 10 µM: 7%
CCRF-CEM
  growth inhibition (GI): inactive
Carbonic anhydrase 9
  Ki: 0.0894 µM
MDA-MB-468
  growth inhibition (GI): inactive
T47D
  inhibition of growth at 10 µM: 6%
BT-549
  inhibition of growth at 10 µM: 7%
Hs-578T
  growth inhibition (GI): inactive
MDA-MB-231
  growth inhibition (GI): inactive
DU-145
  growth inhibition (GI): inactive
PC-3
  inhibition of growth at 10 µM: 1%
UO-31
  inhibition of growth at 10 µM: 13%
TK-10
  growth inhibition (GI): inactive
RXF 393
  growth inhibition (GI): inactive
CAKI-1
  growth inhibition (GI): inactive
ACHN
  growth inhibition (GI): inactive
SK-OV-3
  growth inhibition (GI): inactive
OVCAR-5; OVCAR-5, 48 h, read-out: GI
  inhibition of growth at 10 µM: 2%
OVCAR-4
  growth inhibition (GI): inactive
OVCAR-3
  growth inhibition (GI): inactive
IGROV-1
  growth inhibition (GI): inactive
UACC-62
  growth inhibition (GI): inactive
SK-MEL-5
  growth inhibition (GI): inactive
SK-MEL-28
  growth inhibition (GI): inactive
SK-MEL-2
  growth inhibition (GI): inactive
MDA-MB-435
  growth inhibition (GI): inactive
M14; M14, 48 h, read-out: GI
  inhibition of growth at 10 µM: 2%
